These results are taken from patent US8334315B2, “Substituted aromatic carboxamide and urea derivatives as vanilloid receptor ligands” (Gruenenthal GmbH, priority 2009, dated 2012).

The structures appear in SMILES notation.

The target of one test is T1, hVR1 (Homo sapiens, UniProt Q8NER1).
T1 construct: expressed in transfected cells; host or cells: CHO K1 cells (ECACC), stably transfected
Put plainly: Functional test on VR1, FLIPR Ca2+ influx in transfected CHO K1 cells, capsaicin. The format is cell-based, human being. Also noted: key to Ki (human being) [nM] Cap: agonist / partial agonist / no effect: AG=agonist; pAG=partial agonist; NE=no effect. To be noted: for Ki: capsaicin (Cap), includes values given in brackets after pAG, read-out: Ki (human being) [nM] Cap.

Test [1] has as its target T2, rat-species vanilloid receptor 1 (VR1/TRPV1) (Rattus norvegicus, UniProt O35433).
T2 construct: endogenous in cells; host or cells: primary cells dissociated from rat dorsal root ganglia (DRG), cultured 2-3 days with NGF
Put plainly: Functional testing on the vanilloid receptor 1, FLIPR Ca2+ influx in rat DRG cells, capsaicin. Details: key to Ki (rat) [nM] Cap: agonist / partial agonist / no effect: AG=agonist; pAG=partial agonist; NE=no effect. The format is cell-based. The following applies: for Ki: capsaicin (Cap), includes values given in brackets after pAG.

T2 sequence (O35433 whole entry): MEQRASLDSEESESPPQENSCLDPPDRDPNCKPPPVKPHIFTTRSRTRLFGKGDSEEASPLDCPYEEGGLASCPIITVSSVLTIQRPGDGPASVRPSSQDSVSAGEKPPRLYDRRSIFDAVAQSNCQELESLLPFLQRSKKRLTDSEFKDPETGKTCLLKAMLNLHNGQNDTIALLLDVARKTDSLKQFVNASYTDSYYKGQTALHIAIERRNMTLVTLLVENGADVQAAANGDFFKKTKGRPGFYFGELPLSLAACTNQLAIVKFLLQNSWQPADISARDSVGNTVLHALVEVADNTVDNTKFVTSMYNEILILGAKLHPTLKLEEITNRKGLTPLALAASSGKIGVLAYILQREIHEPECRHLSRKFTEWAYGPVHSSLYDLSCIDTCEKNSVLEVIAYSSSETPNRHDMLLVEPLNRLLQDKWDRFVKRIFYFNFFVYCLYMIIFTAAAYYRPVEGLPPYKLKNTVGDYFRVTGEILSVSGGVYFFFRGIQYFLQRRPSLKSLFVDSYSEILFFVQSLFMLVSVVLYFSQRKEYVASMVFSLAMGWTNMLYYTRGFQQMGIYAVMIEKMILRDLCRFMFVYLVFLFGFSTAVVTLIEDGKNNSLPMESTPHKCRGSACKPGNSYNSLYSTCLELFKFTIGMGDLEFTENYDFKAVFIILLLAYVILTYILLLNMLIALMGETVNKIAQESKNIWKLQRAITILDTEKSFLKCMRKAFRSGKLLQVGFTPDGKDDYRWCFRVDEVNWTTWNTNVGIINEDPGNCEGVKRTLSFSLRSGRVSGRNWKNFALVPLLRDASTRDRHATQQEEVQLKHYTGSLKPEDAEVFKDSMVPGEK
T1 sequence (Q8NER1 whole entry): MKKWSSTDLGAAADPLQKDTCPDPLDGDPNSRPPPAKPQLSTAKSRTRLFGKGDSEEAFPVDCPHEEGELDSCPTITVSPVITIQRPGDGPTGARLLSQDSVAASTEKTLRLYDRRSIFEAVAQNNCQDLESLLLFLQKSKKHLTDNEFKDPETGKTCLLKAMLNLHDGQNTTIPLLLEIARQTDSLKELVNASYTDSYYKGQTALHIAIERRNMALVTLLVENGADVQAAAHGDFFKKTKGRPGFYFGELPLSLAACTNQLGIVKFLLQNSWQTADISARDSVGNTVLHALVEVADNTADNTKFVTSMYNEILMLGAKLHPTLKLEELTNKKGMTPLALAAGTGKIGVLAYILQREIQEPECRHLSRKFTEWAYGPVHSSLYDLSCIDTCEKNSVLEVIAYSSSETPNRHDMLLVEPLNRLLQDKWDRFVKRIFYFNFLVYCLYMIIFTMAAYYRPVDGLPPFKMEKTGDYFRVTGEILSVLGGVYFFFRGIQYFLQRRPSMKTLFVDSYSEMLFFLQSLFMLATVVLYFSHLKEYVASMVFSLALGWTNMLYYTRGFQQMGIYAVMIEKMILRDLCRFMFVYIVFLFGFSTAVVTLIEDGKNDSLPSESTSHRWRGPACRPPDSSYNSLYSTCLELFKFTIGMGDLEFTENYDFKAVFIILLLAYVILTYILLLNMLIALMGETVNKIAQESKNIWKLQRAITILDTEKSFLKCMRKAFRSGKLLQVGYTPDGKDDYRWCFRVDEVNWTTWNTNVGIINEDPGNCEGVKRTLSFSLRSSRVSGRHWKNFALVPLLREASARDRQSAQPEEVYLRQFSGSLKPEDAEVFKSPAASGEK

In general, Ki refers to a dissociation constant, usually derived from enzyme kinetics or from competition with a known ligand. With `CC(C(=O)NCc1cc(C(C)(C)C)nn1-c1cccc(Cl)c1)c1ccc2c(c1)OCO2` (stereo not drawn) [Example 11, 2-(benzo[d][1,3]dioxol-5-yl)-N-((3-tert-butyl-1-(3-chlorophenyl)-1H-pyrazol-5-yl)methyl)propanamide], at hVR1, the “Ki (human being) [nM] Cap: agonist / partial agonist / no effect” value is “pAG” and the Ki came to 3.5 nM. Also, the “Ki (rat) [nM] Cap: agonist / partial agonist / no effect” value in test [1] is on record as “AG”.
On to `CC(C(=O)NCc1cc(C(C)(C)C)nn1-c1cccc(Cl)c1)c1ccc2c(c1)OCCO2` (stereo not drawn) [Example 13, N-((3-tert-butyl-1-(3-chlorophenyl)-1H-pyrazol-5-yl)methyl)-2-(2,3-dihydrobenzo[b][1,4]dioxin-6-yl)propanamide], for which, on hVR1, the “Ki (human being) [nM] Cap: agonist / partial agonist / no effect” value was “pAG” and the Ki was determined as 6.4 nM. For the same compound, in test [1], the “Ki (rat) [nM] Cap: agonist / partial agonist / no effect” value was “pAG” and the Ki was found to be 5.5 nM.
Take `Cc1nc2ccc(C(C)C(=O)NCc3cc(C(F)(F)F)nn3-c3cccc(Cl)c3)cc2s1` (stereo not drawn) [Example 45, N-((1-(3-chlorophenyl)-3-(trifluoromethyl)-1H-pyrazol-5-yl)methyl)-2-(2-methylbenzo[d]thiazol-6-yl)propanamide]: on hVR1, the inhibition constant (Ki) is 15 nM. Besides, in test [1], the “Ki (rat) [nM] Cap: agonist / partial agonist / no effect” value is “pAG” and the inhibition constant (Ki) came out at 14.7 nM.
For the compound `CC(C(=O)NCc1cc(C(F)(F)F)nn1-c1cccc(Cl)c1)c1ccc2cc(O)ccc2c1` (stereo not drawn) [Example 50, N-((1-(3-chlorophenyl)-3-(trifluoromethyl)-1H-pyrazol-5-yl)methyl)-2-(6-hydroxynaphthalen-2-yl)propanamide], at hVR1, the “Ki (human being) [nM] Cap: agonist / partial agonist / no effect” value is reported as “pAG” and the inhibitory constant (Ki) worked out at 1.3 nM. In addition, in test [1], the “Ki (rat) [nM] Cap: agonist / partial agonist / no effect” value is “pAG” and the Ki amounted to 2.5 nM.
As to `CC(C(=O)NCc1cc(C(F)(F)F)nn1-c1cccc(Cl)c1)c1cccc2cnccc12` (stereo not drawn) [Example 64, N-((1-(3-chlorophenyl)-3-(trifluoromethyl)-1H-pyrazol-5-yl)methyl)-2-(isoquinolin-5-yl)propanamide], the Ki on hVR1 turned out to be 0.2 nM; in test [1], 1 nM.
On the same counts, the results for `CC(C)(C)c1cc(CNC(=O)Nc2ccc3c(c2)CCC3)n(-c2cccc(Cl)c2)n1` [Example 79, 1-((3-tert-butyl-1-(3-chlorophenyl)-1H-pyrazol-5-yl)methyl)-3-(2,3-dihydro-1H-inden-5-yl)urea] are 10.8 nM and 15.8 nM.
